Reference: ChEMBL document CHEMBL1201862, “PubChem BioAssay data set” (2004)
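All cell lines were grown in 96-well plates and treated with compound for 48 hours. At the GI50, growth is halved.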 Calls of active or inactive are those of the source. Rule as the data show it: active = GI50 up to about 1.1 µM and inactive = higher.

Experiments:
Assay in all cases: NCI-60 cell line screen, 48 h
NCI/ADR-RES = system: NCI/ADR-RES
UO-31 = system: UO-31
NCI-H23 = system: NCI-H23
OVCAR-8 = system: OVCAR-8
SW-620 = system: SW-620
SNB-75 = system: SNB-75
UACC-62 = system: UACC-62
LOX IMVI = system: LOX IMVI
RPMI-8226 = system: RPMI-8226
HOP-92 = system: HOP-92
SF-295 = system: SF-295
TK-10 = system: TK-10
U-251 = system: U-251
DU-145 = system: DU-145
HL-60 = system: HL-60
MOLT-4 = system: MOLT-4
SF-268 = system: SF-268
786-0 = system: 786-0
KM12 = system: KM12
SR = system: SR

SMILES	GI50 (NCI/ADR-RES)	GI50 (UO-31)	GI50 (NCI-H23)	GI50 (OVCAR-8)	GI50 (SW-620)	GI50 (SNB-75)	GI50 (UACC-62)	GI50 (LOX IMVI)	GI50 (RPMI-8226)	GI50 (HOP-92)	GI50 (SF-295)	GI50 (TK-10)	GI50 (U-251)	GI50 (DU-145)	GI50 (HL-60)	GI50 (MOLT-4)	GI50 (SF-268)	GI50 (786-0)	GI50 (KM12)	GI50 (SR)
CCc1ccccc1N1CCN(C(=O)c2cc(OC)c(OC)c(OC)c2)CC1	0.0151 µM (active)	0.0685 µM (active)	0.0557 µM (active)	0.0914 µM (active)	0.0208 µM (active)	0.0182 µM (active)	0.0156 µM (active)	0.0307 µM (active)	0.149 µM (active)	0.0977 µM (active)	0.0134 µM (active)	0.0248 µM (active)	0.0316 µM (active)	0.0207 µM (active)	0.0233 µM (active)	0.148 µM (active)	0.114 µM (active)	< 0.0149 µM (active)	0.0231 µM (active)	0.0893 µM (active)
Nc1c2c(nc3ccccc13)-c1ccccc1CCC2	14.2 µM (inactive)	10.5 µM (inactive)	15.7 µM (inactive)	15 µM (inactive)	11.6 µM (inactive)	10.2 µM (inactive)	10.7 µM (inactive)	12.7 µM (inactive)	8.67 µM (inactive)	9.12 µM (inactive)	5.98 µM (inactive)	10.7 µM (inactive)	15 µM (inactive)	15.5 µM (inactive)	10.1 µM (inactive)	8.34 µM (inactive)	17.6 µM (inactive)	14.1 µM (inactive)	14.1 µM (inactive)	2.39 µM (inactive)
O=c1n(-c2ccccc2)c(=O)n2n1C1Cc3ccccc3C12 (stereo not given)	> 100 µM (inactive)	> 100 µM (inactive)	> 100 µM (inactive)	> 100 µM (inactive)	> 100 µM (inactive)	69.5 µM (inactive)	> 100 µM (inactive)	> 100 µM (inactive)	> 100 µM (inactive)	> 100 µM (inactive)	> 100 µM (inactive)	> 100 µM (inactive)	> 100 µM (inactive)	> 100 µM (inactive)	> 100 µM (inactive)	> 100 µM (inactive)	> 100 µM (inactive)	> 100 µM (inactive)	> 100 µM (inactive)	> 100 µM (inactive)
